Assay results published in patent US20250313563A1, “GLYCOGEN SYNTHASE KINASE 3 INHIBITORS AND USES THEREOF” (The Broad Institute, Inc., priority 2022, published 2025).
Read-outs that look alike come from different tables or passages of the source.

Tests used:
[1] = biological target: GSK3b (GST-full length GSK3b) (Homo sapiens (Human), UniProt P49841); assay: GSK3b TR-FRET kinase assay; assay type: biochemical
In short: (§1)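 Compound preincubated 30 min, then 1 nM GST-full-length GSK3α or GSK3b run 100 min at ambient temperature with 200 nM biotinylated, S645-prephosphorylated glycogen synthase 631-650 peptide in Tris pH 7.5, MgCl2, DTT, BSA, 1% DMSO. ATP 4 μM (α) or 2 μM (β), or 1 mM. EDTA-quenched; Tb-anti-pSer641/streptavidin-d2 TR-FRET 665/615 ratio gave IC50.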

[2] = biological target: GSK3α (GST-full length GSK3α) (Homo sapiens (Human), UniProt P49840); assay: GSK3α TR-FRET kinase assay; assay type: biochemical
In short: as §1

[3] = 1 nM GSK3b, 2 μM ATP, 30 minute preincubation, geometric mean, read-out: GSK3-B TR-FRET BIOCHEMICAL (TR-FRET), GMean, IC50
[4] = 1 nM GSK3α, 4 μM ATP, 30 minute preincubation, geometric mean, read-out: GSK3-A TR-FRET BIOCHEMICAL (TR-FRET), GMean, IC50
[5] = 1 nM GSK3b, 2 μM ATP, 30 minute preincubation, Table 16, read-out: GSK3-B TR-FRET BIOCHEMICAL (TR-FRET)
[6] = 1 nM GSK3α, 4 μM ATP, 30 minute preincubation, Table 16, read-out: GSK3-A TR-FRET BIOCHEMICAL (TR-FRET)
[7] = 1 nM GSK3b, 2 μM ATP, 30 minute preincubation, read-out: GSK3-B TR-FRET BIOCHEMICAL (TR-FRET), IC50
[8] = 1 nM GSK3α, 4 μM ATP, 30 minute preincubation, read-out: GSK3-A TR-FRET BIOCHEMICAL (TR-FRET), IC50
[9] = GSK3-B (TR-FRET 1 mM ATP), GMean, IC50, 1 mM ATP, geometric mean
[10] = GSK3-A (TR-FRET 1 mM ATP), GMean, IC50, 1 mM ATP, geometric mean
[11] = read-out: GSK3-B (TR-FRET 1 mM ATP), GMean, IC50, 1 mM ATP, geometric mean
[12] = read-out: GSK3-A (TR-FRET 1 mM ATP), GMean, IC50, 1 mM ATP, geometric mean

GSK3α (GST-full length GSK3α), sequence (P49840 whole entry): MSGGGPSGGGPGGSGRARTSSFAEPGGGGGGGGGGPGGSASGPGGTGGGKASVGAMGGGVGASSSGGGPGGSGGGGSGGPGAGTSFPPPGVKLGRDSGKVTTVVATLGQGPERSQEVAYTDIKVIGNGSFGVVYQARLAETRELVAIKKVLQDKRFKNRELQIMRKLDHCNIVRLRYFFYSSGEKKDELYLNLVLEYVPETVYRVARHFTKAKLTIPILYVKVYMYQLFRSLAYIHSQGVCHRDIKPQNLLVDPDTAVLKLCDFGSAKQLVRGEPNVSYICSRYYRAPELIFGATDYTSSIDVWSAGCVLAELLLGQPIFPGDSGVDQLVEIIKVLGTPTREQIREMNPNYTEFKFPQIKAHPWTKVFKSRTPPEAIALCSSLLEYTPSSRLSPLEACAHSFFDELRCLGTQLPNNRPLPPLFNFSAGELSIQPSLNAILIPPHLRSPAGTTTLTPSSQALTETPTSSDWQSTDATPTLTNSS
GSK3b (GST-full length GSK3b), sequence (P49841 whole entry): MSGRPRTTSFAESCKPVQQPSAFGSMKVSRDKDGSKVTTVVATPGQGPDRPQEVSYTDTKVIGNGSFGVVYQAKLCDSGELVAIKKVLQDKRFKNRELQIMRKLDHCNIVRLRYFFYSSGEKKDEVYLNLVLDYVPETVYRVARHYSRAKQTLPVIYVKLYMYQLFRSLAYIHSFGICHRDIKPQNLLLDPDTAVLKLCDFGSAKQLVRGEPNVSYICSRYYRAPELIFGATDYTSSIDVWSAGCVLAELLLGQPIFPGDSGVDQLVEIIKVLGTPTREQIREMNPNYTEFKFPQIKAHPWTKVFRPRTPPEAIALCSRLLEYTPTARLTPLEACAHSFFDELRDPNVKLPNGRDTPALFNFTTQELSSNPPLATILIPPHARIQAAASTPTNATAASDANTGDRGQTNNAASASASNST

Row | IC50 [1, 5] [nM] | IC50 [2, 6] [nM] | SMILES | other results
1 | – | – | CCC1(c2cccc(C(F)(F)F)c2)C2=C(CCN(c3cccnc3)C2=O)Nc2n[nH]cc21 (stereo not shown) [Compound 947433] | IC50 [1, 3]: > 5000 nM; IC50 [2, 4]: > 5000 nM
2 | 100 to 1000 | ≤ 100 | Cc1ccc(S(=O)(=O)N2CCC3(CC2)C2=C(CC(C)(C)CC2=O)Nc2n[nH]cc23)cc1 [Compound 947459] | –
3 | ≤ 100 | ≤ 100 | Cc1c(S(=O)(=O)N2CCC3(CC2)C2=C(CC(C)(C)CC2=O)Nc2n[nH]cc23)cnn1C [Compound 947460] | –
4 | – | – | CC1(C)CC(=O)C2=C(C1)Nc1n[nH]cc1C21CCN(S(=O)(=O)c2ccn(-c3ccccc3)n2)CC1 [Compound 947461] | IC50 [1, 7]: ≤ 100 nM; IC50 [2, 8]: ≤ 100 nM
5 | ≤ 100 | ≤ 100 | CC1(C)CC(=O)C2=C(C1)Nc1n[nH]cc1C21CCN(S(=O)(=O)c2cnc3ccccc3c2)CC1 [Compound 947462] | IC50 [1, 9]: 1000 to 5000 nM; IC50 [2, 10]: 100 to 1000 nM
6 | 100 to 1000 | ≤ 100 | CC1(C)CC(=O)C2=C(C1)Nc1n[nH]cc1C21CCN(S(=O)(=O)c2cnccc2C(F)(F)F)CC1 [Compound 947463] | –
7 | – | – | CC1(C)CC(=O)C2=C(C1)Nc1n[nH]cc1C21CCN(S(=O)(=O)c2cccc3c2OCCO3)CC1 [Compound 947464] | IC50 [1, 7]: ≤ 100 nM; IC50 [1, 9]: 100 to 1000 nM; IC50 [2, 8]: ≤ 100 nM; IC50 [2, 10]: ≤ 100 nM
8 | ≤ 100 | ≤ 100 | COc1cncc(S(=O)(=O)N2CCC3(CC2)C2=C(CC(C)(C)CC2=O)Nc2n[nH]cc23)c1 [Compound 947465] | –
9 | 100 to 1000 | ≤ 100 | CC1(C)CC(=O)C2=C(C1)Nc1n[nH]cc1C21CCN(S(=O)(=O)c2cnnn2-c2ccccc2)CC1 [Compound 947466] | –
10 | 100 to 1000 | ≤ 100 | CC1(C)CC(=O)C2=C(C1)Nc1n[nH]cc1C21CCN(S(=O)(=O)c2cnc3n2CCC3)CC1 [Compound 947467] | –
11 | ≤ 100 | ≤ 100 | Cc1ccc(S(=O)(=O)N2CCC3(CC2)C2=C(CC(C)(C)CC2=O)Nc2n[nH]cc23)c(C)c1 [Compound 947468] | –
12 | ≤ 100 | ≤ 100 | CC1(C)CC(=O)C2=C(C1)Nc1n[nH]cc1C21CCN(S(=O)(=O)c2cccc3ncccc23)CC1 [Compound 947469] | –
13 | ≤ 100 | ≤ 100 | CC1(C)CC(=O)C2=C(C1)Nc1n[nH]cc1C21CCN(S(=O)(=O)c2cccc3c2CCCC3)CC1 [Compound 947470] | –
14 | 100 to 1000 | ≤ 100 | Cc1ccc(C)c(S(=O)(=O)N2CCC3(CC2)C2=C(CC(C)(C)CC2=O)Nc2n[nH]cc23)c1 [Compound 947471] | –
15 | 100 to 1000 | ≤ 100 | CC1(C)CC(=O)C2=C(C1)Nc1n[nH]cc1C21CCN(S(=O)(=O)c2cn3c(n2)CCCC3)CC1 [Compound 947472] | –
16 | 100 to 1000 | 100 to 1000 | CC(C)c1ccccc1S(=O)(=O)N1CCC2(CC1)C1=C(CC(C)(C)CC1=O)Nc1n[nH]cc12 [Compound 947473] | –
17 | ≤ 100 | ≤ 100 | CC1(C)CC(=O)C2=C(C1)Nc1n[nH]cc1C21CCN(S(=O)(=O)c2cnn3c2CCCC3)CC1 [Compound 947474] | –
18 | ≤ 100 | ≤ 100 | Cc1cc(S(=O)(=O)N2CCC3(CC2)C2=C(CC(C)(C)CC2=O)Nc2n[nH]cc23)ccc1Cl [Compound 947475] | –
19 | – | – | CC1(C)CC(=O)C2=C(C1)Nc1n[nH]cc1C21CCN(S(=O)(=O)c2ccc3ccccc3n2)CC1 [Compound 947476] | IC50 [1, 7]: ≤ 100 nM; IC50 [2, 8]: ≤ 100 nM
20 | ≤ 100 | ≤ 100 | COCCn1cc(S(=O)(=O)N2CCC3(CC2)C2=C(CC(C)(C)CC2=O)Nc2n[nH]cc23)cn1 [Compound 947477] | –
21 | ≤ 100 | ≤ 100 | COc1ccc(S(=O)(=O)N2CCC3(CC2)C2=C(CC(C)(C)CC2=O)Nc2n[nH]cc23)cc1F [Compound 947478] | –
22 | ≤ 100 | ≤ 100 | CC1(C)CC(=O)C2=C(C1)Nc1n[nH]cc1C21CCN(S(=O)(=O)c2ccccc2C#N)CC1 [Compound 947479] | –
23 | ≤ 100 | ≤ 100 | CC1(C)CC(=O)C2=C(C1)Nc1n[nH]cc1C21CCN(S(=O)(=O)c2cnc3n2CCCC3)CC1 [Compound 947480] | –
24 | ≤ 100 | ≤ 100 | Cc1cc(S(=O)(=O)N2CCC3(CC2)C2=C(CC(C)(C)CC2=O)Nc2n[nH]cc23)ccn1 [Compound 947481] | –
25 | ≤ 100 | ≤ 100 | Cc1ccc(S(=O)(=O)N2CCC3(CC2)C2=C(CC(C)(C)CC2=O)Nc2n[nH]cc23)cn1 [Compound 947482] | –

Row | IC50 [1, 5] [nM] | IC50 [2, 6] [nM] | SMILES | other results
26 | ≤ 100 | ≤ 100 | CC1(C)CC(=O)C2=C(C1)Nc1n[nH]cc1C21CCN(S(=O)(=O)c2cnn3c2OCCC3)CC1 [Compound 947483] | –
27 | – | – | CC1(C)CC(=O)C2=C(C1)Nc1n[nH]cc1C21CCN(S(=O)(=O)c2c(F)cc(F)cc2F)CC1 [Compound 947484] | IC50 [1, 7]: ≤ 100 nM; IC50 [2, 8]: ≤ 100 nM
28 | – | – | CC1(C)CC(=O)C2=C(C1)Nc1n[nH]cc1C21COC2(CN(C(=O)C(F)F)C2)C1 (stereo not shown) [Compound 947485] | IC50 [1, 7]: ≤ 100 nM; IC50 [2, 8]: ≤ 100 nM
29 | – | – | CC1(C)CC(=O)C2=C(C1)Nc1n[nH]cc1C21COC2(CN(C(=O)C3CCC(F)C3)C2)C1 (stereo not shown) [Compound 947486] | IC50 [1, 7]: ≤ 100 nM; IC50 [2, 8]: ≤ 100 nM
30 | – | – | CC1(C)CC(=O)C2=C(C1)Nc1n[nH]cc1C21COC2(CN(C(=O)C3(F)CC3)C2)C1 (stereo not shown) [Compound 947487] | IC50 [1, 7]: ≤ 100 nM; IC50 [2, 8]: ≤ 100 nM
31 | ≤ 100 | ≤ 100 | CCC1(c2cccc(-c3c(C)cnn3C)c2)C2=C(CC(C)(C)CC2=O)Nc2n[nH]cc21 (stereo not shown) [Compound 947491] | –
32 | 100 to 1000 | ≤ 100 | CCC1(c2cccc(-c3cnn4c3CCC4)c2)C2=C(CC(C)(C)CC2=O)Nc2n[nH]cc21 (stereo not shown) [Compound 947494] | –
33 | > 5000 | 1000 to 5000 | CC[C@]1(c2cccc(Cc3ncccn3)c2)C2=C(CC(C)(C)CC2=O)Nc2n[nH]cc21 [Compound 947499] | IC50 [1, 11]: > 5000 nM; IC50 [2, 12]: > 5000 nM
34 | ≤ 100 | ≤ 100 | CC[C@@]1(c2cccc(-c3c(F)cncc3OC)c2)C2=C(CC(C)(C)CC2=O)Nc2n[nH]cc21 [Compound 947511] | IC50 [1, 11]: ≤ 100 nM; IC50 [2, 12]: ≤ 100 nM
35 | 100 to 1000 | 100 to 1000 | CCC1(c2cccc(Cc3ncccc3C(F)(F)F)c2)C2=C(CC(C)(C)CC2=O)Nc2n[nH]cc21 (stereo not shown) [Compound 947548] | –
36 | – | – | CCC1(c2cccc(S(=O)(=O)C3CC3)c2)C2=C(CC(C)(C)NC2=O)Nc2n[nH]c(C)c21 (stereo not shown) [Compound 947562] | IC50 [1, 3]: ≤ 100 nM; IC50 [2, 4]: ≤ 100 nM
37 | – | – | CCC1(c2cccc(-c3ccnc(C)c3F)c2)C2=C(CC(C)(C)NC2=O)Nc2n[nH]c(C)c21 (stereo not shown) [Compound 947563] | IC50 [1, 3]: 100 to 1000 nM; IC50 [2, 4]: ≤ 100 nM
38 | – | – | CCC1(c2cccc(N3CCOCC3)c2)C2=C(CC(C)(C)NC2=O)Nc2n[nH]c(C)c21 (stereo not shown) [Compound 947564] | IC50 [1, 3]: 100 to 1000 nM; IC50 [2, 4]: 100 to 1000 nM
39 | – | – | CCC1(c2cccc(N3CCCCC3)c2)C2=C(CC(C)(C)NC2=O)Nc2n[nH]cc21 (stereo not shown) [Compound 947566] | IC50 [1, 3]: 1000 to 5000 nM; IC50 [2, 4]: 1000 to 5000 nM
40 | – | – | CCC1(c2cccc(-c3c(C)nn(C)c3C)c2)C2=C(CC(C)(C)NC2=O)Nc2n[nH]c(C(F)(F)F)c21 (stereo not shown) [Compound 947568] | IC50 [1, 3]: ≤ 100 nM; IC50 [2, 4]: ≤ 100 nM
41 | ≤ 100 | ≤ 100 | CCC1(c2cccc(-c3ccncc3S(C)(=O)=O)c2)C2=C(CC(C)(C)CC2=O)Nc2n[nH]cc21 (stereo not shown) [Compound 947569] | –
42 | – | – | CC[C@]1(c2cccc(-c3c(C)nn(C)c3C)c2)C2=C(CC(C)(C)NC2=O)Nc2n[nH]c(C)c21 [Compound 947573] | IC50 [1, 3]: 1000 to 5000 nM; IC50 [2, 4]: 100 to 1000 nM
43 | – | – | CC[C@]1(c2cccc(-c3ccncc3C)c2)C2=C(CC(C)(C)NC2=O)Nc2n[nH]cc21 [Compound 947574] | IC50 [1, 3]: ≤ 100 nM; IC50 [2, 4]: ≤ 100 nM
44 | – | – | CCC1(c2cccc(-c3c(C)nn(C)c3C)c2)C2=C(CC(C)(C)NC2=O)Nc2n[nH]c(C)c21 (stereo not shown) [Compound 947575] | IC50 [1, 3]: ≤ 100 nM; IC50 [2, 4]: ≤ 100 nM
45 | – | – | CCC1(c2cccc(-c3ccncc3C)c2)C2=C(CC(C)(C)NC2=O)Nc2n[nH]cc21 (stereo not shown) [Compound 947576] | IC50 [1, 3]: 1000 to 5000 nM; IC50 [2, 4]: ≤ 100 nM
46 | ≤ 100 | ≤ 100 | COCc1cccc(S(=O)(=O)N2CCC3(CC2)C2=C(CC(C)(C)CC2=O)Nc2n[nH]cc23)c1 [Compound 947605] | –
47 | ≤ 100 | ≤ 100 | Cn1nc(C(F)(F)F)cc1S(=O)(=O)N1CCC2(CC1)C1=C(CC(C)(C)CC1=O)Nc1n[nH]cc12 [Compound 947606] | –
48 | ≤ 100 | ≤ 100 | CC(C)n1cc(S(=O)(=O)N2CCC3(CC2)C2=C(CC(C)(C)CC2=O)Nc2n[nH]cc23)cn1 [Compound 947607] | –
49 | ≤ 100 | ≤ 100 | Cc1cc(S(=O)(=O)N2CCC3(CC2)C2=C(CC(C)(C)CC2=O)Nc2n[nH]cc23)n(C)n1 [Compound 947608] | –
